Assay results: ChEMBL document CHEMBL3137667, “[Drug-induced liver injury; fourteenth updated edition of the bibliographic database of liver injuries and related drugs]” (Gastroenterol Clin Biol, 2004)

Legend:
[1] = human
[2] = human; remark: listed apart in the source
[3] = human, serum
[4] = human; remark: listed apart in the source
[5] = human, serum; remark: listed apart in the source
[6] = human; remark: listed apart in the source
[7] = human, serum, 4383 h
[8] = human; remark: listed apart in the source
[9] = human; remark: listed apart in the source
[10] = human; remark: listed apart in the source
[11] = Highest frequency of moderate liver toxicity observed during clinical trials, expressed as a percentage. [column '% BIOL' in source]; conditions: human
[12] = human; remark: listed apart in the source
[13] = Highest frequency of acute liver toxicity observed during clinical trials, expressed as a percentage. [column '% AIGUE' in source]; conditions: human
[14] = human; remark: listed apart in the source
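Throughout, for Hepatotoxicity (association with vascular disease): count of indexed literature references reporting vascular liver injury in humans, e.g. peliosis hepatitis, hepatic veno-occlusive disease or Budd-Chiari syndrome.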
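Throughout, for Hepatotoxicity (benign tumour): value is a count of indexed literature references citing a benign tumour confirmed by histopathology.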
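Throughout, for Hepatotoxicity (choleostasis): human cholestatic liver injury, shown by histopathology or by peak ALT or AST elevation over alkaline phosphatase ratio below 2, value counts indexed literature reports.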
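Throughout, for Hepatotoxicity (chronic liver disease): chronic liver injury confirmed by histopathology or persistently raised serum aminotransferase activity beyond 6 months, value given as the count of indexed literature references.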
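Throughout, for Hepatotoxicity (cirrhosis): value is a count of indexed literature references reporting cirrhosis confirmed by histopathology.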
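Throughout, for Hepatotoxicity (cytolytic): human cytolytic liver injury, shown by histopathology or by a ratio above 5 of peak ALT or AST elevation to alkaline phosphatase elevation, value counts indexed references.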
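Throughout, for Hepatotoxicity (granulomatous hepatitis): value is a count of indexed literature references reporting granulomatous liver disease confirmed by histopathology.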
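Throughout, for Hepatotoxicity (malignant tumour): malignant tumour confirmed by histopathology, value gives the count of indexed literature references reporting it.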
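Throughout, for Hepatotoxicity (severe hepatitis): human clinical data: severe hepatitis, meaning potentially life-threatening liver failure or clinically observed cases, the value counts how many indexed literature references report it.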
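Throughout, for Hepatotoxicity (steatosis): steatosis confirmed by histopathology, value is the count of indexed references.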

Compound	Hepatotoxicity (steatosis) [1]	Hepatotoxicity (malignant tumour) [2]	Hepatotoxicity (acute) [3]	Hepatotoxicity (cirrhosis) [4]	Hepatotoxicity (moderate) [5]	Hepatotoxicity (benign tumour) [6]	Hepatotoxicity (chronic liver disease) [7]	Hepatotoxicity (cytolytic) [8]	Hepatotoxicity (association with vascular disease) [9]	Hepatotoxicity (choleostasis) [10]	Hepatotoxicity (moderate) [11]	Hepatotoxicity (granulomatous hepatitis) [12]	Hepatotoxicity (acute) [13]	Hepatotoxicity (severe hepatitis) [14]	Hepatotoxicity (moderate) ([11]; Liver)	Hepatotoxicity (acute) ([13]; Liver)	Hepatotoxicity (severe hepatitis) ([14]; Liver)
CC(O)(P(=O)(O)O)P(=O)(O)O [ETIDRONIC ACID]	0	0	0	0	1	0	0	0	0	0	8.7%	0	0%	0	–	–	–
LOBAPLATIN	0	0	0	0	1	0	0	0	0	0	3.7%	0	0%	0	–	–	–
CO[C@@H](/C(C)=C/C=C/C(C)=C/c1coc(C)n1)[C@@H](C)[C@@H]1C[C@H](O)[C@@]2(C)O[C@@H]2/C=C/[C@@H](C)[C@H]2C[C@H](CC(=O)O2)C[C@@H]2O[C@H]2C(=O)O1 [RHIZOXIN]	0	0	0	0	1	0	0	0	0	0	7.3%	0	0%	0	–	–	–
CC(C)NCC(O)COc1ccc(COCCOC(C)C)cc1 (stereo not drawn) [BISOPROLOL]	0	0	0	0	3	0	0	0	0	0	7.1%	0	0%	0	–	–	–
O=C1NCCN1CCN1CCC(c2cn(-c3ccc(F)cc3)c3ccc(Cl)cc23)CC1 [SERTINDOLE]	0	0	0	0	1	0	0	0	0	0	1.4%	0	0%	0	–	–	–
CN[C@@H]1[C@@H](O)[C@@H](O[C@@H]2[C@@H](O)[C@H](O[C@H]3O[C@H](CN)[C@@H](O)[C@H](O)[C@H]3O)[C@@H](N)C[C@H]2NC(=O)[C@@H](O)CN)OC[C@]1(C)O [ISEPAMICIN]	0	0	0	0	22	0	0	0	0	0	30%	0	0%	0	–	–	–
GENTAMICIN	0	0	0	0	7	0	0	0	0	0	14.3%	0	0%	0	–	–	–
O=C(CCOCCOCCOCCOCCC(=O)Nc1c(I)cc(I)c(C(=O)O)c1I)Nc1c(I)cc(I)c(C(=O)O)c1I [IODOXAMIC ACID]	0	0	1	0	1	0	0	0	0	0	0%	0	0%	0	–	–	–
CCC(C)C(C)(COC(N)=O)COC(N)=O (stereo not drawn) [MEBUTAMATE]	0	0	1	0	0	0	0	0	0	1	0%	0	0%	0	–	–	–
CNn1cc(C(=O)O)c(=O)c2cc(F)c(N3CCN(C)CC3)cc21 [AMIFLOXACIN]	0	0	1	0	1	0	0	1	0	0	–	0	–	–	5%	1.7%	0
CCN[C@@H]1C[C@H](N)[C@@H](O[C@H]2OC(CN)=CC[C@H]2N)[C@H](O)[C@H]1O[C@H]1OC[C@](C)(O)[C@H](NC)[C@H]1O [NETILMICIN]	0	0	0	0	5	0	0	0	0	0	29.4%	0	0%	0	–	–	–
ETARACIZUMAB	0	0	0	0	1	0	0	0	0	0	77.8%	0	0%	0	–	–	–
